Reference: patent US20210186905A1, “ENHANCING T-CELL FUNCTION AND TREATING A T-CELL DYSFUNCTIONAL DISORDER WITH A COMBINATION OF AN LSD INHIBITOR AND A PD-1 BINDING ANTAGONIST” (EpiAxis Therapeutic Pty Ltd, priority 2017, published 2021)
“Also recorded” adds a separate entry of the source. Where a name gives a salt, the structure may show the parent alone.

Experiments:
Format in all cases: in vivo, mouse
[1] = system: F4/80+ macrophages (CD38, CD206, LSD1p); test: Immunofluorescence assay of TME macrophage populations (M1/M2 profiles)
Protocol: FIG. 4 is a graphical representation showing that dual epigenetic-immunotherapy re-educates and re-programs innate macrophage repertoire. A. Immunofluorescence microscopy was performed on F4/80+MØ cells fixed and probed with a M1 panel consisting of anti-CD38 and ? odies and DAPI. […] B. Immunofluorescence microscopy was performed on F4/80+MØ cells fixed and probed with a M2 panel consisting of anti-CD206 and anti LSD1p antibodies and DAPI.
The effect of these treatment modalities was also investigated on TME macrophage populations by immunofluorescence assay (IFA). In particular, the M1 (CD38 expression) and M2 profiles (CD206 expression) were examined, along with LSD1p expression.
(§1) A total of 2×10^5 cells were injected per mouse into mammary gland in 50 μL of phosphate buffered saline (PBS). Treatments were started on mice after 15 days post-inoculation of 4T1 cells. […] Tumors were measured using calipers and the tumor volumes (mm3) were calculated using the formula (length×width2)/2. ? arvested cells from primary tumors where then cytospun ? -treated with poly-1-lysine and fixed then stored in PBS for IFA Microscopy Analysis. […] Digital images were analysed using ImageJ software (ImageJ, NIH, Bethesda, Md., USA) to determine the either the Total Nuclear Fluorescent Intensity (TNFI), the Total Cytoplasmic Fluorescent Intensity (TCFI) or total Fluorescent Intensity (TFI).

IFN-γ and TNF-α = test: Immunofluorescence of IFN-γ and TNF-α in CD8+ T-cells; details: IF % change
Protocol: FIG. 5 is a graphical representation showing that dual epigenetic-immunotherapy re-educates and re-programs the T-cell repertoire. A. Cells stimulated with PMA/ionomycin for 4 hours in the presence of Brefeldin A. Cells were surfaced stained with CD45, CD3, CD4, CD8, CD44, CD62L (for naïve, effector and central memory), CD25 and FoxP3 (for Tregs) and analyzed via Flow cytometry. A Mann-Whitney non-parametric t-test was used to compare control vs other groups (*p<0.05, n=2-5). […] Representative images for each dataset are shown. TNFI values for EOMES, TBET and Ki67 measured using Image) to select the nucleus minus background. […] Cells stimulated with PMA/ionomycin for 4 hours in the presence of Brefeldin A. Cell were surfaced stained with CD45, CD3, CD4, CD8 and intracellular staining of IFN-γ, IL-2 and TNF-α in the presence of Brefeldin A and analyzed via flow cytometry. […] TNFI values for TNFα and IFNγ measured using ImageJ to select the nucleus minus background. […]
A total of 2×10^5 cells were injected per mouse into mammary gland in 50 μL of phosphate buffered saline (PBS). […] Tumors were measured using calipers and the tumor volumes (mm3) were calculated using the formula (length×width2)/2. ? arvested cells from primary tumors where then cytospun ? -treated with poly-1-lysine and fixed then stored in PBS for IFA Microscopy Analysis. […]

CSV, LSD1p, SNAI1 = test: Immunofluorescence of cancer cells from primary tumor micro-environment, mesenchymal CTC signature panel; details: cancer cells from primary TME; % change relative to vehicle control
Protocol: FIG. 2 is a graphical and photographic representation showing the efficacy of dual phenelzine sulfate (phenelzine) and anti-PD1 antibody (PD1) therapy on circulating tumor cells (CTCs) and cancer stem cells (CSC) as well as tumor burden. A. Statistics of tumor volumes on day 15 post-treatment. A Mann-Whitney non-parametric t-test was used to compare control vs other groups (*p<0.02, **p<0.008). Group A=Control, Group C: PD1 (10 mg/kg), Group D: Phenelzine (40 mg/kg), Group F: PD1+Phenelzine. Illustration of the treatment protocol is also shown. […] Representative images for each dataset are shown. […] C. […] (a) Representative images for each dataset are shown. (b) Graph represents the TCFI values for CD133 TNFI for ALDH1A and TFI for ABCB5 measured using ImageJ to select the nucleus/cytoplasm minus background (n>20 individual cells, Group A=Control, Group C: PD1 (10 mg/kg), Group D: Phenelzine (40 mg/kg), Group F: PD1+Phenelzine).
FIG. 11 is a photographic and graphical representation showing triple therapy efficacy on CTC/CSC and tumor burden. […] (b) Graph represents the TCFI values for CD133 TNFI for ALDH1A and TFI for ABCB5 measured using ImageJ to select the nucleus/cytoplasm minus background (n>20 individual cells, Group A=Control, Group B: Abraxane (30 mg/kg), Group C: anti-PD1 (10 mg/kg), Group D: Phenelzine (40 mg/kg), Group E: Abraxane+PD1, Group F: PD1+Phenelzine, Group G: Abraxane+Phenelzine, Group H: Triple Therapy). […]
as §1, with “(PBS).” for “(PBS). Treatments were started on mice after 15 days post-inoculation of 4T1 cells.”

**Q.** Which “M1 phenotype (CD38 expression and LSD1p inhibition)” value [1] does the source give for `NNCCc1ccccc1` (racemic) [phenelzine sulfate, (±)-2-phenylethylhydrazine] here?
**A.** Its value is “most strongly enhanced”.

**Q.** What about the “tumor associated M2 profile (CD206 and LSD1p expression)” value [1] of the same compound?
**A.** Its value is “re-programmed and inhibited”.

**Q.** What about the IFN-γ expression (IFN-γ and TNF-α) of the same compound?
**A.** Its IFN-γ expression is “no significant effect”.

**Q.** And the SNAI1 expression (CSV, LSD1p, SNAI1)?
**A.** Its SNAI1 expression is “strong inhibition; also recorded: stronger inhibition”.

**Q.** And the “expression of CSV” value (CSV, LSD1p, SNAI1)?
**A.** Its value is “strong inhibition; also recorded: stronger inhibition”.

**Q.** What about the “nuclear expression of LSD1” value (CSV, LSD1p, SNAI1) of the same compound?
**A.** Its value is “strong inhibition; also recorded: stronger inhibition”.
